Data: ChEMBL document CHEMBL5465560, “Selectivity Literature for EUbOPEN Chemogenomic Library” (2024)

Assays:
[1] = molecular target: T1, Inhibitor of nuclear factor kappa-B kinase subunit epsilon (Homo sapiens) (UniProt Q14164); test: Selectivity interaction (KinomeScan (DiscoverX)) EUB0001079a IKBKE; conditions: at 1 µM
T1 sequence (whole entry): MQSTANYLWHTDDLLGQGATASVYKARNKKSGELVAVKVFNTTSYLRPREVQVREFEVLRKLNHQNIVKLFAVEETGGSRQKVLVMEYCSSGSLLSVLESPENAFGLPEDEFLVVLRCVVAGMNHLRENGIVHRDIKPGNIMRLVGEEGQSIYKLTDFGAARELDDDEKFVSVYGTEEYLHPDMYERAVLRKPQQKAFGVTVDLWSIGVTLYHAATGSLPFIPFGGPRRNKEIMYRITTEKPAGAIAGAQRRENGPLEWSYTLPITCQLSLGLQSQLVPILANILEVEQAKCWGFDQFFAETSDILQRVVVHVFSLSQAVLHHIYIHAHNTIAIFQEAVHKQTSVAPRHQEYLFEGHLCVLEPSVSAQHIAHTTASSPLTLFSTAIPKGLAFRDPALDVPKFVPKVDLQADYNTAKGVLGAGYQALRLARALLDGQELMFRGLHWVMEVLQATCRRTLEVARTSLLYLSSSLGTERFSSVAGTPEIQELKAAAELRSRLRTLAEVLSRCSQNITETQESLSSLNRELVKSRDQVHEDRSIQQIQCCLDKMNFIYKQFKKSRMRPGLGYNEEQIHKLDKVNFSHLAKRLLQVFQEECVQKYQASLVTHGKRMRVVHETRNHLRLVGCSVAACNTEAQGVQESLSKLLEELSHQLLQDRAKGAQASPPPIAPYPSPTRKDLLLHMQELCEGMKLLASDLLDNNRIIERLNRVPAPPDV

[2] = molecular target: T2, Eukaryotic translation initiation factor 2-alpha kinase 3 (Homo sapiens) (UniProt Q9NZJ5); test: Selectivity interaction (ProQinase) EUB0000171b EIF2AK3
T2 sequence (whole entry): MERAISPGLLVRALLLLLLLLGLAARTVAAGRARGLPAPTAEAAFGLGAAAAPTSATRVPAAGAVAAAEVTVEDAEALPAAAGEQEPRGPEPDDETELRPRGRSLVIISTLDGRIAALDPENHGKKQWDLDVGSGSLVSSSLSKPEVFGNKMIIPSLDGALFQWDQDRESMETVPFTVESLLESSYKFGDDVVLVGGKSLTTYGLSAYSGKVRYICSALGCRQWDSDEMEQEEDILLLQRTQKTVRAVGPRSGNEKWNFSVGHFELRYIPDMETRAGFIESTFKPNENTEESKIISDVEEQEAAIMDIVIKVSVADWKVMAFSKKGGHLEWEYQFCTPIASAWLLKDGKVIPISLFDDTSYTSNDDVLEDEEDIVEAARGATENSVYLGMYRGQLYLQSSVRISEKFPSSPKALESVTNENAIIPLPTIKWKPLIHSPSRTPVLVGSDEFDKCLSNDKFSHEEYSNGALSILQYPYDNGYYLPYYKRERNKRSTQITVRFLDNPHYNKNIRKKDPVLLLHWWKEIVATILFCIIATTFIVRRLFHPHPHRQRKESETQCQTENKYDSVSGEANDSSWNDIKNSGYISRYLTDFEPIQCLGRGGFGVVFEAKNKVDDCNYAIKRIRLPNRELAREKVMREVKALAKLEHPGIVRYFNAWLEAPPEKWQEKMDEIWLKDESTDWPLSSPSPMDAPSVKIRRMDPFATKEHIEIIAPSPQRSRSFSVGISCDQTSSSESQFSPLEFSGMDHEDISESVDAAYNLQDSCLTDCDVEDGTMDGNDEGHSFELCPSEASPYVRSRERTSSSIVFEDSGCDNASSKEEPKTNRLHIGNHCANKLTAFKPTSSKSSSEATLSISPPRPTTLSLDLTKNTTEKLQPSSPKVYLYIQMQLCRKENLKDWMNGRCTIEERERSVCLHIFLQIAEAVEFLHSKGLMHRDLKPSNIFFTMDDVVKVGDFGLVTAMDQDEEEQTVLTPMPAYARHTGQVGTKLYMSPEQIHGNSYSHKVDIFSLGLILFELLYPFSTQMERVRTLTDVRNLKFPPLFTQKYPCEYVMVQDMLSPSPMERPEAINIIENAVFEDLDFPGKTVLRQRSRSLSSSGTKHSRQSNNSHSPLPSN

[3] = molecular target: Serine/threonine-protein kinase Nek4 (Homo sapiens) (UniProt P51957); test: Selectivity interaction (KinomeScan (DiscoverX)) EUB0000655a NEK4; conditions: at 10 µM
Serine/threonine-protein kinase Nek4 (Homo sapiens), sequence (P51957 whole entry, looked up): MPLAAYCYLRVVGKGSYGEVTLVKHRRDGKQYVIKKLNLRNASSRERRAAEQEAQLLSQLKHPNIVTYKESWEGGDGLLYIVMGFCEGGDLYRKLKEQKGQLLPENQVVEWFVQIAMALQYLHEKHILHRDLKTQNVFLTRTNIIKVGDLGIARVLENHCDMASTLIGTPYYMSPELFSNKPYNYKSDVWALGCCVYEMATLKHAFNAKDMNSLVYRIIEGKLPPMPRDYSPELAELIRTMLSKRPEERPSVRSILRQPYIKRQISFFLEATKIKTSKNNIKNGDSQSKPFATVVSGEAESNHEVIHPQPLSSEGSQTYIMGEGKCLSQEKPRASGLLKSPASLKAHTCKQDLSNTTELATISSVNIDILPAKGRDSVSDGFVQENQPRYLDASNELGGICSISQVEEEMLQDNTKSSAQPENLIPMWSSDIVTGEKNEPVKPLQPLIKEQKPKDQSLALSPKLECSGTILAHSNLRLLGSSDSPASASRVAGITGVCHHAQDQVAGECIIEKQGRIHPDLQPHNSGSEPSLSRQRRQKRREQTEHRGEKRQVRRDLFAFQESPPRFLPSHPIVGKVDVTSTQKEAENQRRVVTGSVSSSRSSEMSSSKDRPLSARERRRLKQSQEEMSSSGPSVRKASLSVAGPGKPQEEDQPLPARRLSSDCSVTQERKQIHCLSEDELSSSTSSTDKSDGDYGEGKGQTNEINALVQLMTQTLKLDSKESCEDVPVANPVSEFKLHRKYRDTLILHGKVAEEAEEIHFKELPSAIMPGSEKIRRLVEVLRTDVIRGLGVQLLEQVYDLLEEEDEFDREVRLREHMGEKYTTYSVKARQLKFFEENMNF

[4] = molecular target: T3, Bone morphogenetic protein receptor type-2 (Homo sapiens) (UniProt Q13873); conditions: at 10 µM
T3 sequence (whole entry): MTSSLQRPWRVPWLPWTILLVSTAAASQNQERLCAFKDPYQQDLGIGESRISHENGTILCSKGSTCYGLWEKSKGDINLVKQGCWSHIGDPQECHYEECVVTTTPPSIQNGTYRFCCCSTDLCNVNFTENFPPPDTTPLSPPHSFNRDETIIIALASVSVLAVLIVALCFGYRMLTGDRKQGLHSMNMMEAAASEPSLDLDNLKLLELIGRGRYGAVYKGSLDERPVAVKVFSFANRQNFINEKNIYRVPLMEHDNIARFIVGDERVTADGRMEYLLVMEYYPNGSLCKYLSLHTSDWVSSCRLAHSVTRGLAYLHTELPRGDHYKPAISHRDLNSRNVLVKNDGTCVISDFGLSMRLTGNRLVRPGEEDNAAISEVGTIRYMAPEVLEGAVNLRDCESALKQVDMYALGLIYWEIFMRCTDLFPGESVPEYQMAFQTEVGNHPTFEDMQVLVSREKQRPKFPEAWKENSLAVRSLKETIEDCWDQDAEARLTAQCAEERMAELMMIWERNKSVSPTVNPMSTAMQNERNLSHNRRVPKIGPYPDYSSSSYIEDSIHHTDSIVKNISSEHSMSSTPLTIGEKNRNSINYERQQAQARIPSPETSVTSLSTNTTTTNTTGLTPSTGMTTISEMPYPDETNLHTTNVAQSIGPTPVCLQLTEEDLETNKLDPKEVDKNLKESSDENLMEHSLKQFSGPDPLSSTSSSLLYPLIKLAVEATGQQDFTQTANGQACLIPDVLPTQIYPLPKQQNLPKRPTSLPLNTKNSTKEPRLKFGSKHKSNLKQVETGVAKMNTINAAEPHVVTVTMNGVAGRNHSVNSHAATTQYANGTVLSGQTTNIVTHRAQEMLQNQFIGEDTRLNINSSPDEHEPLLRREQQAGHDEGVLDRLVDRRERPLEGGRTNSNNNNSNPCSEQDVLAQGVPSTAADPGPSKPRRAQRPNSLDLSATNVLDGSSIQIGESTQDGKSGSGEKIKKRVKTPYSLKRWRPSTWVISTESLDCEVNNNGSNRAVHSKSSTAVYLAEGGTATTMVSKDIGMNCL

[5] = molecular target: Tyrosine-protein kinase CSK (Homo sapiens) (UniProt P41240); conditions: at 10 µM
Tyrosine-protein kinase CSK (Homo sapiens), sequence (P41240 2-450 limits assumed): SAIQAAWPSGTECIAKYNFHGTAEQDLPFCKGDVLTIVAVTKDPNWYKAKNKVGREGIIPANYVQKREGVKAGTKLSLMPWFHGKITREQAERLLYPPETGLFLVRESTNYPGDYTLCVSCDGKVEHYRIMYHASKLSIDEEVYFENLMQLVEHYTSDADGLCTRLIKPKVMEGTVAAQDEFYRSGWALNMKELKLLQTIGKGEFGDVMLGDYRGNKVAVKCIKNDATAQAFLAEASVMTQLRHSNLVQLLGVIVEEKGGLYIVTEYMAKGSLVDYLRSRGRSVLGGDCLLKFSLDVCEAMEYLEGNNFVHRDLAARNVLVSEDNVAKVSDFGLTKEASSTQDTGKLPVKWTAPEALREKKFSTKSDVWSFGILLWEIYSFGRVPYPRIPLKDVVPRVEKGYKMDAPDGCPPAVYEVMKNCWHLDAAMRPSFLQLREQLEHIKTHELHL

Compound `Nc1cnc(N2CCc3cc(S(=O)(=O)Nc4c(F)cc(Cl)cc4F)cc(N4CCCC4=O)c32)nc1` [TP-020n] has a % of control [1] of 95%.
In the case of `C=CC(=O)Nc1cccc(C(=O)Nc2ccc(Nc3cc(-c4[nH]c(SC)nc4C)ccn3)cc2)c1`, the % of control ([2]; at 1 µM) is reported as 92% and the % of control ([2]; at 5 µM) is reported as 97%.
With `CN(C)CCOc1ccc(-c2nc(-c3ccncc3)c(-c3ccc4c(c3)CC/C4=N\O)[nH]2)cc1` the % of control [3] was 100%.
`CCN(CC)CCCCNc1ncc2cc(-c3cc(OC)cc(OC)c3)c(NC(=O)NC(C)(C)C)nc2n1` gave a % of control [4] of 100% and a % of control [5] of 100%.
